Numbers after ± are expanded uncertainties. Values belong to the compound of their own block, whether it stands above or below them.
What was measured:
[1] = Liquid; for mass density: 298.15 K, 101.33 kPa, Vibrating tube method; for vapor or sublimation pressure: Closed cell (Static) method
[2] = refractive index (Na D-line) (dimensionless); conditions: 298.15 K; 101.33 kPa; Liquid; Standard Abbe refractometry

mass density [1]: 1107.92 ± 0.09 kg/m3
vapor or sublimation pressure ([1]; 405.97 K): 10 ± 0.73 kPa
vapor or sublimation pressure ([1]; 406.07 K): 10 ± 0.73 kPa
vapor or sublimation pressure ([1]; 423.18 K): 20 ± 0.99 kPa
vapor or sublimation pressure ([1]; 441.92 K): 40 ± 1.6 kPa
refractive index [2]: 1.4312 ± 0.0003
Structure (SMILES): OCCO [1,2-ethanediol]

Structure (SMILES): OCCCCO [1,4-butanediol]
mass density [1]: 1013.04 ± 0.05 kg/m3
vapor or sublimation pressure ([1]; 437.48 K): 10 ± 0.73 kPa
vapor or sublimation pressure ([1]; 454.63 K): 20 ± 0.99 kPa
vapor or sublimation pressure ([1]; 473.22 K): 40 ± 1.6 kPa
refractive index [2]: 1.4449 ± 0.0003

Structure (SMILES): OCCOCCO [diethylene glycol]
mass density [1]: 1112.56 ± 0.12 kg/m3
vapor or sublimation pressure ([1]; 445.07 K): 10 ± 0.82 kPa
vapor or sublimation pressure ([1]; 445.47 K): 10 ± 0.81 kPa
vapor or sublimation pressure ([1]; 464.36 K): 20 ± 1.1 kPa
vapor or sublimation pressure ([1]; 485.33 K): 40 ± 1.8 kPa
refractive index [2]: 1.4452 ± 0.0003

mass density [1]: 1120.7 ± 0.1 kg/m3
vapor or sublimation pressure ([1]; 480.39 K): 10 ± 0.88 kPa
vapor or sublimation pressure ([1]; 500.97 K): 20 ± 1.2 kPa
vapor or sublimation pressure ([1]; 524.64 K): 40 ± 2 kPa
refractive index [2]: 1.4457 ± 0.0003
Structure (SMILES): OCCOCCOCCO [triethylene glycol]

— the NIST ThermoML archive (doi:10.1021/je401020e)
